Data taken from patent publication US3937809A, “Addition compound of a nucleotide and an amino acid and the use thereof in protection against actinic radiation” (priority 1974, dated 1976).
Values after ≈ are worked out from the molar mass of the structure shown.

Experiments:
[1] = UV absorption in % at 300, 280 and 240 nm (Table 2); type: physicochemical
Text: The following Table illustrates the ultraviolet absorption characteristics at wave lengths of 300 nm, 280 nm, and 240 nm for the compounds of the invention, as well as other known compounds which have been used in the past as sun protective agents.

[2] = background statement; cited from earlier work
[3] = Solubility in water at 20°C (Table 3); type: physicochemical
[4] = UV spectrum and extinction coefficients in water (Table I); type: physicochemical
pH of solution (Table I) = type: physicochemical; details: c=0.005
Text: The following Table 1 lists additional compounds of the invention along with their physical properties.
Molecular Brutto N(%) pH UV- Extinction coefficients

| UV Absorption in %, 240 nm [1] [%] | UV Absorption in %, 280 nm [1] [%] | UV Absorption in %, 300 nm [1] [%] | Compound | other results |
| --- | --- | --- | --- | --- |
| 70 | 55 | 0 | O=c1ccn([C@@H]2O[C@H](COP(=O)(O)O)[C@@H](O)[C@H]2O)c(=O)[nH]1 [Uridine-5'-monophosphoric acid-Na2] |  |
| 91 | 100 | 100 | Nc1ccc(C(=O)O)cc1 [p-Aminobenzoic acid] | ultraviolet absorption of known agents (in words) [2]: insufficient absorption in the ultraviolet portion of the spectrum |
| 90 | 45 | 42 | O=c1cc[nH]c(=O)[nH]1 [Uracil] | solubility [3]: 2000 µg/mL (≈ 17.8 mM) |
| 100 | 65 | 6 | O=c1[nH]cnc2nc[nH]c12 [Hypoxanthine] |  |
| 100 | 98 | 95 | Nc1cc[nH]c(=O)n1 [Cytosine] | solubility [3]: 4000 µg/mL (≈ 36 mM) |

Second part, the compound before the results:

| Compound | UV Absorption in %, 240 nm [1] [%] | UV Absorption in %, 280 nm [1] [%] | UV Absorption in %, 300 nm [1] [%] | other results |
| --- | --- | --- | --- | --- |
| O=C(O)c1ccccc1O [Salicylic acid] | 98 | 74 | 94 |  |
| Nc1ccccc1C(=O)O [Anthranilic acid(o-Aminobenzoic acid), o-Aminobenzoic acid] | 99 | 48 | 84 |  |
| Nc1ncnc2c1ncn2[C@@H]1O[C@H](COP(=O)(O)O)[C@@H](O)[C@H]1O [Adenosine-5'-monophosphoric acid-Na2] | 80 | 8 | 6 |  |
| Nc1cc(C(=O)O)c(O)c(S(=O)(=O)O)c1 [5-Amino-3-sulfosalicylic acid-Na2] | 87 | 0 | 26 |  |
| Nc1ncnc2nc[nH]c12 [Adenine] | 100 | 52 | 14 | solubility [3]: 840 µg/mL (≈ 6.22 mM) |
| Nc1nc2nc[nH]c2c(=O)[nH]1 [Guanine] | 73 | 62 | 11 |  |
| Adenosine-5'-mono-phosphoric acid-(Na-tryptophane)2 [No. 5] |  |  |  | UV-spectrum λmax [4]: 220 mμ; mol.Ext.coeff. ε ([4]; c=0.005, d-l): 320000±4%; Extinction coefficients E250/E260 ([4]; c=0.005, d-l, ratio): 0.76; Extinction coefficients E280/E260 ([4]; c=0.005, d-l, ratio): 0.67; Extinction coefficients E290/E260 ([4]; c=0.005, d-l, ratio): 0.33; pH (pH of solution (Table I)): 7.0 |
| Nc1ccc(C(=O)O)c(O)c1 [4-Aminosalicylic acid] | 98.5 | 99 | 99 |  |
| Nc1ccn([C@@H]2O[C@H](COP(=O)(O)O)[C@@H](O)[C@H]2O)c(=O)n1 [Cytidine-5'-monophosphoric acid-Na2] | 86 | 88 | 3 |  |
| Cytidine-5'-monophosphoric acid-(o-aminobenzoic acid)2 Na2 | 98 | 79 | 55.5 |  |
